Laboratory results as given in ChEMBL document CHEMBL4680212, “Discovery of T-1101 tosylate as a first-in-class clinical candidate for Hec1/Nek2 inhibition in cancer therapy” (Eur J Med Chem, 2020).
The source made the active and inactive calls. No cut-off for these calls is given here.

Assays:
MES-SA/Dx5 = test: Antiproliferative activity against human MES-SA/Dx5 cells measured after 96 hrs by CellTiter 96 Aqueous One Solution Reagent based assay; type: functional, cell-based
HEC1/NEK2 (Homo sapiens) [1] = target: T1, HEC1/NEK2 (Homo sapiens) (UniProt P51955+O14777); test: Inhibition of Hec1-Nek2 protein-protein interaction in human K562 cells at 100 nM measured after 6 hrs by coimmunoprecipitation assay; type: cell-based
MDA-MB-231 [2] = test: Down regulation of Pgp expression in human MDA-MB-231 cells; type: functional, cell-based
HeLa [3] = test: Induction of apoptosis in human HeLa cells assessed as decrease in cyclin D1 expression at 1 uM measured after 24 hrs by Western blot analysis; type: functional, cell-based
HeLa [4] = test: Induction of apoptosis in human HeLa cells assessed as decrease in XIAP expression at 1 uM measured after 24 hrs by Western blot analysis; type: functional, cell-based
HeLa [5] = test: Induction of apoptosis in human HeLa cells assessed as increase in cleaved PARP protein expression at 1 uM measured after 24 hrs by Western blot analysis; type: functional, cell-based
HeLa [6] = test: Induction of apoptosis in human HeLa cells assessed as increase in cleaved caspase 3 protein expression at 1 uM measured after 24 hrs by Western blot analysis; type: functional, cell-based
HEC1/NEK2 (Homo sapiens) [7] = target: T1, HEC1/NEK2 (Homo sapiens); test: Inhibition of Hec1-Nek2 protein-protein interaction in human K562 cells assessed as reduction in Nek2 level at 1 uM by Western blot analysis; type: cell-based; details: TDE = time-dependent effect
NCI/ADR-RES = test: Antiproliferative activity against human NCI/ADR-RES cells measured after 96 hrs by CellTiter 96 Aqueous One Solution Reagent based assay; type: functional, cell-based
HeLa [8] = test: Down regulation of Pgp expression in human HeLa cells; type: functional, cell-based
HeLa [9] = test: Induction of apoptosis in human HeLa cells assessed as decrease in cyclin B1 expression at 1 uM measured after 24 hrs by Western blot analysis; type: functional, cell-based
HeLa [10] = test: Induction of apoptosis in human HeLa cells assessed as decrease in Mcl-1 expression at 1 uM measured after 24 hrs by Western blot analysis; type: functional, cell-based
HeLa [11] = test: Induction of apoptosis in human HeLa cells assessed as decrease in cyclin A1 expression at 1 uM measured after 24 hrs by Western blot analysis; type: functional, cell-based
MDA-MB-231 [12] = test: Antitumor activity against human MDA-MB-231 cells xenografted in SCID mouse assessed as tumor growth at 150 mg/kg, po administered twice daily for 28 days measured post last dose relative to control; type: functional; details: time 28 day
K562 = test: Antiproliferative activity against human K562 cells measured after 96 hrs by CellTiter 96 Aqueous One Solution Reagent based assay; type: functional, cell-based; details: K562, 96 h
MDA-MB-231 [13] = test: Antiproliferative activity against human MDA-MB-231 cells measured after 96 hrs by CellTiter 96 Aqueous One Solution Reagent based assay; type: functional, cell-based; details: MDA-MB-231, 96 h
[14] = AUC in CD-1 mouse at 10 mg/kg, po administered as single dose via gavage by LC-MS/MS analysis; type: ADME, organism-based; design: dose 10 mg/kg; details: in vivo
HeLa [15] = test: Antiproliferative activity against human HeLa cells measured after 96 hrs by CellTiter 96 Aqueous One Solution Reagent based assay; type: functional, cell-based
MDA-MB-468 = test: Antiproliferative activity against human MDA-MB-468 cells measured after 96 hrs by CellTiter 96 Aqueous One Solution Reagent based assay; type: functional, cell-based; details: MDA-MB-468, 96 h
[16] = Oral bioavailability in CD-1 mouse at 10 mg/kg administered as single dose via gavage by LC-MS/MS analysis; type: ADME, organism-based; details: in vivo

T1 sequence (O14777 whole entry, looked up): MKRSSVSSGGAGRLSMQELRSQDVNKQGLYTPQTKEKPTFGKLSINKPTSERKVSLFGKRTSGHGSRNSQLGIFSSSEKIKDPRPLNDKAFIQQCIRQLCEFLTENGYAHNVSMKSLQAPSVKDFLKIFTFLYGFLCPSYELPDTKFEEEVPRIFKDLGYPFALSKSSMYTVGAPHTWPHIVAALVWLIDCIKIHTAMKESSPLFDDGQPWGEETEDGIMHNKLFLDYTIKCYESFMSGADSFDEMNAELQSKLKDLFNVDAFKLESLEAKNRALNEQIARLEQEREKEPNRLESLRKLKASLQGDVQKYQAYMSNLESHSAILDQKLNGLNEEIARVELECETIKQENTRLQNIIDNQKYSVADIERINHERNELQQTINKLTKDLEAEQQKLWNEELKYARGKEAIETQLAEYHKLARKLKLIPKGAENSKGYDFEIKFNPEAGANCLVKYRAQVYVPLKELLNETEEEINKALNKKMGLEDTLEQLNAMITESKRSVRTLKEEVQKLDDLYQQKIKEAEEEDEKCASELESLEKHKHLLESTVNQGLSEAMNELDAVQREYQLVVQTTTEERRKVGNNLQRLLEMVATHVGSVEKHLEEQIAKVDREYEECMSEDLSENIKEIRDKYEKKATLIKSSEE
T1 sequence (P51955 whole entry, looked up): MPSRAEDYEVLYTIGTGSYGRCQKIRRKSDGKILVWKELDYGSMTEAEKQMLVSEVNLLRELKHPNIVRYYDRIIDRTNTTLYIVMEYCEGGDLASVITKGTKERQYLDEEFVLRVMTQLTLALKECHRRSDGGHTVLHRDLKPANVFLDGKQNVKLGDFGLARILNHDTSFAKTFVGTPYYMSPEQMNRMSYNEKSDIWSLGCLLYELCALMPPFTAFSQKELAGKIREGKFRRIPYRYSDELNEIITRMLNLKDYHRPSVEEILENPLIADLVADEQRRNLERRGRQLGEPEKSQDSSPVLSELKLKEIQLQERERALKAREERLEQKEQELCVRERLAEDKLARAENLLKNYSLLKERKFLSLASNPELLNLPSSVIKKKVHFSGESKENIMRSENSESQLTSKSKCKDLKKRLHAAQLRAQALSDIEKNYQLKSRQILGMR

Question: Which Activity (MES-SA/Dx5) does the source give for COCCOc1cnc(Sc2cc(C)c(-c3csc(NC(=O)c4ccncc4)n3)c(C)c2)cn1 here?
Answer: Its Activity is “Active”.

Question: What about the inhibition (HEC1/NEK2 (Homo sapiens) [1]) of the same molecule?
Answer: Its inhibition is “Active”.

Question: What about the Activity (MDA-MB-231 [2]) of the same molecule?
Answer: Its Activity is “Active”.

Question: And the Activity (HeLa [3])?
Answer: Its Activity is “Active”.

Question: And the Activity (HeLa [4])?
Answer: Its Activity is “Active”.

Question: And the Activity (HeLa [5])?
Answer: Its Activity is “Active”.

Question: What about the Activity (HeLa [6]) of the same molecule?
Answer: Its Activity is “Active”.

Question: And the Activity (HEC1/NEK2 (Homo sapiens) [7])?
Answer: Its Activity is “Tde”.

Question: And the Activity (NCI/ADR-RES)?
Answer: Its Activity is “Active”.

Question: What about the Activity (HeLa [8]) of the same molecule?
Answer: The Activity was “Active”.

Question: And the Activity (HeLa [9])?
Answer: Its Activity is “Active”.

Question: And the Activity (HeLa [10])?
Answer: Its Activity is “Active”.

Question: And the Activity (HeLa [11])?
Answer: The Activity was “Active”.

Question: With COc1ccc(Oc2cc(C)c(-c3csc(NC(=O)c4ccncc4)n3)c(C)c2)cc1 as the molecule, how does the T/C (MDA-MB-231 [12]) read?
Answer: The T/C was 50%.

Question: For Cc1cc(Sc2cnc(OCCN(C)C)cn2)cc(C)c1-c1csc(NC(=O)c2ccncc2)n1, which IC50 (K562) is on record?
Answer: The IC50 was 59.2 nM.

Question: And the IC50 (MDA-MB-231 [13])?
Answer: The IC50 was 94.5 nM.

Question: What about the AUC [14] of the same molecule?
Answer: The AUC was 13.9 µM·h.

Question: What about the IC50 (HeLa [15]) of the same molecule?
Answer: The IC50 was 32.8 nM.

Question: And the IC50 (MDA-MB-468)?
Answer: The IC50 was 53.9 nM.

Question: Which bioavailability [16] does the source give for COCCOc1cnc(Sc2cc(C)c(-c3csc(NC(=O)c4ccncc4)n3)c(C)c2)cn1.Cl here?
Answer: The bioavailability was 84%.

Question: And the AUC [14]?
Answer: The AUC was 50.9 µM·h.
